Assays:
fat cells = assay: own investigations on differentiation of fat cells; format: cell-based; conditions: depending on the use concentration
pancreatic lipase (PL) = molecular target: T1, pancreatic lipase (PL) (Sus scrofa, UniProt P00591); assay: inhibition of pancreatic lipase, MUF oleate hydrolysis; format: biochemical; conditions: MUF oleate substrate; mean values of at least 2 independent tests
T1 construct: purchased Sigma-Aldrich
T1 sequence (P00591 1-450): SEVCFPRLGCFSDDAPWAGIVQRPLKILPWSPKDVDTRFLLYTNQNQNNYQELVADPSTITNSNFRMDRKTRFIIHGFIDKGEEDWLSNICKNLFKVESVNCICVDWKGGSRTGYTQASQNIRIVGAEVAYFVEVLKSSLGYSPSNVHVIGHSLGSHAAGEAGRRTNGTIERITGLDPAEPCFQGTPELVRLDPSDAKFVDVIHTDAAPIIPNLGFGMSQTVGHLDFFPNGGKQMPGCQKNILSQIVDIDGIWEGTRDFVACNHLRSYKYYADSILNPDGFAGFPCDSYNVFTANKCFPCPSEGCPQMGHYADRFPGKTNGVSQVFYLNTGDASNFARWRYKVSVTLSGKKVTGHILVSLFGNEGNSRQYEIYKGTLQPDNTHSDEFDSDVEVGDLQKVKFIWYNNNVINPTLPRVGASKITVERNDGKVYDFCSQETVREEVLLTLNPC
From the text: Lipogenesis is taken to mean the storing of triglycerides in adipocytes. The inhibition of this storage can take place by means of the inhibition of the activity of extracellular lipoprotein lipase (LPL) in that the hydrolysis of extracellular triglycerides and therefore the absorption of free fatty acids by adipocytes is reduced. As a preliminary test, the inhibition of pancreatic lipase (PL) is investigated.
PL (Sigma-Aldrich), in the presence of test substances in different use concentrations has methylumbelliferyl oleate (MUF oleate) added as a substrate. Fluorescent methylumelliferon (MUF), is produced by hydrolysis of the MUF oleate by PL and is quantified. The inhibition of the hydrolysis of the MUF oleate is a measure of the inhibition of activity of the PL.
The IC50 is calculated from the inhibition of the PL [%] in a series of dilutions of tested samples. This is the concentration, at which the activity of the PL is 50% inhibited.

lipoprotein lipase (LPL) = molecular target: T2, lipoprotein lipase (LPL) (Mus musculus, UniProt P11152); assay: inhibition of lipoprotein lipase from differentiated 3T3-L1 cells, MUF oleate hydrolysis; format: biochemical; conditions: LPL from 3T3-L1 cells; MUF oleate substrate; mean values of at least 2 independent tests
T2 construct: endogenous in cells; host or cells: differentiated 3T3-L1 cells (mouse); heparin-released supernatant
T2 sequence (P11152 28-474): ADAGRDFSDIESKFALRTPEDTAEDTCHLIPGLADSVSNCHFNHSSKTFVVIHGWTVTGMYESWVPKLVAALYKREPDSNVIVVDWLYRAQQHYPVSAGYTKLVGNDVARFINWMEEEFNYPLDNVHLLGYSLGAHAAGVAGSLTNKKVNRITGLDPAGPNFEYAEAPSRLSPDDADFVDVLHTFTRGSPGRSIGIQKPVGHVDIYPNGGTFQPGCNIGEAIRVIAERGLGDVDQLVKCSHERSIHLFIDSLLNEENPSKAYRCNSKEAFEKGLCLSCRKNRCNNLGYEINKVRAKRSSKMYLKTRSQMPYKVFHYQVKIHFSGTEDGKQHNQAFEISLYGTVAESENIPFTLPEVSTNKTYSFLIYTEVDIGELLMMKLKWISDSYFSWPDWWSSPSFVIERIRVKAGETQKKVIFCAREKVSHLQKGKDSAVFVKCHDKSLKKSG
Experimental: The results of the inhibition of the PL are used as a preliminary test and are confirmed on LPL. To obtain LPL, 3T3-L1 cells (mouse embryonal fibroblast adipocyte cell line) are seeded in a 6-well plate with collagen I-coating in a concentration of 3×10^5 cells/well. The cultivation and differentiation of the cells takes place analogously to the details in Example 2 (adipogenesis assay). During the differentiation LPL, is increasingly expressed. The LPL is present in a membrane-bound state and is released by one hour incubation with heparin solution at 2-8° C. in the supernatant of the cells.
The LPL thus obtained, in the presence of test substances in different use concentrations, has methylumbelliferyl oleate (MUF oleate) added as the substrate. Fluorescent methylumbelliferyl (MUF) is produced by hydrolysis of the MUF oleate by LPL and is quantified. The inhibition of the hydrolysis of the MUF oleate is a measure of the inhibition of the activity of the LPL and therefore the lipogenesis.
The IC50 is calculated from the inhibition of the LPL [%] in a series of dilutions of tested samples. This is the concentration at which the activity of the LPL and therefore the lipogenesis is 50% inhibited.

3T3-L1-cells = assay: adipogenesis inhibition assay (Nile Red lipid staining); format: cell-based, mouse; conditions: mean values of at least 2 independent tests
Experimental: 3T3-L1-cells (mouse embryonal fibroblast-like adipocyte cell line) are seeded in a 48-well plate with collagen I-coating in a concentration of 3×10^4 cells/well. After 72 h cultivation at 37° C. and 5% CO2 in DMEM (Dulbecco's Modified Eagle Medium), enriched with 10% calf serum, various concentrations of the test substances in DMEM, enriched with 10% foetal calf serum and to which are added 1 μg/ml insulin, 0.25 μM dexamethasone and 0.5 mM IBMX (3-isobutyl-1-methylxanthine), are added and incubated for a further 48 h. A media change takes place, in that DMEM, enriched with 10% foetal calf serum and with 1 μg/ml insulin added, are applied. After renewed cultivation for 48 h, a further media change takes place, in which DMEM, enriched with 10% foetal calf serum, is applied.
After a further incubation for 72 h, the intracellularly stored lipids are quantified as a measure for the differentiation of the cells by measuring the fluorescence after dyeing of the lipids with the fluorescent dye Nile Red.
The inhibition of the adipogenesis in the presence of the test substances is calculated according to the following equation: […]
The IC50 is calculated from the adipogenesis inhibition (%) in a series of dilutions of tested samples. This is the concentration at which the adipogenesis is 50% inhibited.

[1] = test system: Primary human subcutaneous preadipocytes differentiated to adipocytes; assay: lipolysis assay, free glycerol in supernatant; format: cell-based; conditions: for Activity with regard to lipolysis (neither inhibited nor stimulated): max. use concentration 25 ppm, about 20 hours incubation; for IC50 inhibition of the lipolysis: mean values of at least 2 independent tests
Experimental: Primary human subcutaneous preadipocytes (Lonza) are seeded in a 96-well microtiter plate at a concentration of 1×10^4 cells/well. Until confluence is reached, cultivation takes place at 37° C. and 5% CO2 in DMEM, enriched with 10% foetal calf serum. To induce the differentiation of preadipocytes to adipocytes there follows the addition DMEM enriched with 10% foetal calf serum, with added 10 μg/ml insulin, 1 μM dexamethasone and 1 mM IBMX (3-isobutyl-1-methylxanthine). A cultivation for 14 to 20 days follows. During this time, the medium can optionally be replaced by DMEM, enriched with 10% foetal calf serum.
Various concentrations of the test substances are applied to the cells in DMEM, with bovine serum albumen added. After about 20 hours of incubation, the quantification takes place of free glycerol in the supernatant of the cells, which is discharged therefrom after hydrolysis of triglycerides in the cells and is a measure of the lipolysis of the cells. The quantification of the free glycerol is carried out based on an enzymatic method with a free glycerol reagent.
The stimulation of the lipolysis in the presence of test substances is calculated according to the following equation: […]
The […] is calculated from the lipolysis stimulation [%] in a series of dilutions of tested samples. This is the concentration at which the lipolysis is 50% stimulated.
The inhibition of the lipolysis in the presence of test substances is calculated according to the following equation: […]
The IC50 is calculated from the lipolysis inhibition [%] in a series of dilutions of tested samples. This is the concentration at which the lipolysis is 50% inhibited.

[2] = phototoxic potential, photo-irritation factor according to OECD guideline 432; conditions: own investigations
From the text: The phototoxic potential is expressed as a photo-irritation factor (PIF). […] It applies here that with a PIF of less than 2, no phototoxic potential exists while a phototoxic potential exists at a PIF of more than 5. With a PIF of between 2 and 5, there is possibly a phototoxic potential.

Molecule	IC50 inhibition of the PL (pancreatic lipase (PL)) [ppm]	IC50 inhibition of the LPL (lipoprotein lipase (LPL)) [ppm]	IC50 adipogenesis inhibition (3T3-L1-cells) [ppm]	Activity with regard to lipolysis (neither inhibited nor stimulated) [1]	other results
O=c1c(-c2ccc(O)cc2)coc2cc(O)cc(O)c12 [genistein]	–	–	–	–	effect on differentiation of fat cells, in words (fat cells): inhibited or stimulated
COc1ccc2c(c1)OC[C@H]1c3ccccc3O[C@@H]21 [3-methoxypterocarpan]	350	67.0	50.9	No activity (25 ppm)	–
COc1cc(O)c2c(=O)c(-c3ccc(O)c(O)c3)coc2c1 [Santal, reference compound]	–	–	–	–	IC50 inhibition of the lipolysis [1]: 1.92 ppm; effect on lipolysis (route iii), in words ([1]; own investigations): inhibition of lipolysis
COc1ccc(-c2coc3cc(O)c(OC)cc3c2=O)cc1O [odoratin]	–	–	–	–	phototoxic potential, in words [2]: notable phototoxic potential
cladastrin	–	–	–	–	phototoxic potential, in words [2]: notable phototoxic potential
COc1ccc(-c2coc3cc(O)ccc3c2=O)cc1 [Formononetin, reference compound]	–	–	–	–	IC50 inhibition of the lipolysis [1]: 53.7 ppm

Second part, led by results:

IC50 inhibition of the PL (pancreatic lipase (PL)) [ppm]	IC50 inhibition of the LPL (lipoprotein lipase (LPL)) [ppm]	Molecule	IC50 adipogenesis inhibition (3T3-L1-cells) [ppm]	Activity with regard to lipolysis (neither inhibited nor stimulated) [1]	other results
147	104.2	Oc1ccc2c(c1)OC[C@H]1c3cc4c(cc3O[C@@H]21)OCO4 [Maackiain]	25.5	No activity (25 ppm)	–
425	788	COc1ccc2c(c1)OC1c3ccc(O)cc3OCC21 (stereo not drawn) [Medicarpin]	54.0	No activity (25 ppm)	–

— patent US8633203B2, “Use of pterocarpans as active anti-cellulite ingredients” (Symrise AG, priority 2009, dated 2014)
